PMC11374673, “Discovery of isoquinoline sulfonamides as allosteric gyrase inhibitors with activity against fluoroquinolone-resistant bacteria” (Nature Chemistry, 2024)
Several values for one entry are separate records, joined by “and”; a condition that tells them apart may be missing. Identical values can stand only once.

Test system: E. coli
Test: Checkerboard assay LEI-800 with CIP;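 note: bacterial growth read as OD600 after 20 h at 37 °C with shaking, each drug pair tested in triplicate wells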
Type: cell-based, Escherichia coli
[1] = Ciprofloxacin 0.78125 nM + LEI-800 0 µM
[2] = Ciprofloxacin 0.78125 nM + LEI-800 0.1 µM
[3] = Ciprofloxacin 0.78125 nM + LEI-800 0.2 µM
[4] = Ciprofloxacin 0.78125 nM + LEI-800 0.4 µM
[5] = Ciprofloxacin 0.78125 nM + LEI-800 0.8 µM
[6] = Ciprofloxacin 0.78125 nM + LEI-800 3.1 µM
[7] = Ciprofloxacin 0.78125 nM + LEI-800 6.2 µM
[8] = Ciprofloxacin 1.5625 nM + LEI-800 0 µM
[9] = Ciprofloxacin 1.5625 nM + LEI-800 0.1 µM
[10] = Ciprofloxacin 1.5625 nM + LEI-800 0.2 µM
[11] = Ciprofloxacin 1.5625 nM + LEI-800 0.4 µM
[12] = Ciprofloxacin 1.5625 nM + LEI-800 0.8 µM
[13] = Ciprofloxacin 1.5625 nM + LEI-800 3.1 µM
[14] = Ciprofloxacin 1.5625 nM + LEI-800 6.2 µM
[15] = Ciprofloxacin 12.5 nM + LEI-800 0.2 µM
[16] = Ciprofloxacin 12.5 nM + LEI-800 0.4 µM
[17] = Ciprofloxacin 25 nM + LEI-800 0 µM
[18] = Ciprofloxacin 25 nM + LEI-800 0.1 µM
[19] = Ciprofloxacin 25 nM + LEI-800 0.2 µM
[20] = Ciprofloxacin 25 nM + LEI-800 0.4 µM
[21] = Ciprofloxacin 25 nM + LEI-800 0.8 µM
[22] = Ciprofloxacin 25 nM + LEI-800 3.1 µM
[23] = Ciprofloxacin 25 nM + LEI-800 6.2 µM
[24] = Ciprofloxacin 50 nM + LEI-800 0 µM
[25] = Ciprofloxacin 50 nM + LEI-800 0.1 µM
[26] = Ciprofloxacin 50 nM + LEI-800 0.2 µM
[27] = Ciprofloxacin 50 nM + LEI-800 0.4 µM
[28] = Ciprofloxacin 50 nM + LEI-800 0.8 µM
[29] = Ciprofloxacin 50 nM + LEI-800 3.1 µM
[30] = Ciprofloxacin 50 nM + LEI-800 6.2 µM

## O=C(O)c1cn(C2CC2)c2cc(N3CCNCC3)c(F)cc2c1=O [CIP, ciprofloxacin]
[1]
  checkerboard plate reading, Average values: 0.83
  checkerboard plate reading, replicate wells: 0.8643 and 0.836 and 0.7898
[2]
  checkerboard plate reading, Average values: 0.7281
  checkerboard plate reading, replicate wells: 0.7059 and 0.7562 and 0.7221
[3]
  checkerboard plate reading, Average values: 0.6917
  checkerboard plate reading, replicate wells: 0.6798 and 0.723 and 0.6723
[4]
  checkerboard plate reading, Average values: 0.6669
  checkerboard plate reading, replicate wells: 0.6638 and 0.6554 and 0.6815
[5]
  checkerboard plate reading, Average values: 0.5857
  checkerboard plate reading, replicate wells: 0.6064 and 0.5755 and 0.5753
[6]
  checkerboard plate reading, Average values: 0.2755
  checkerboard plate reading, replicate wells: 0.2688 and 0.2609 and 0.2967
[7]
  checkerboard plate reading, Average values: 0.1492
  checkerboard plate reading, replicate wells: 0.1443 and 0.151 and 0.1523
Ciprofloxacin 0.78125 nM + LEI-800 […]
  checkerboard plate reading, Average values: 0.4707
[8]
  checkerboard plate reading, Average values: 0.8174
  checkerboard plate reading, replicate wells: 0.9018 and 0.7912 and 0.7592
[9]
  checkerboard plate reading, Average values: 0.71
  checkerboard plate reading, replicate wells: 0.7109 and 0.704 and 0.715
[10]
  checkerboard plate reading, Average values: 0.6776
  checkerboard plate reading, replicate wells: 0.667 and 0.7085 and 0.6572
[11]
  checkerboard plate reading, Average values: 0.6371
  checkerboard plate reading, replicate wells: 0.6099 and 0.644 and 0.6575
[12]
  checkerboard plate reading, Average values: 0.5615
  checkerboard plate reading, replicate wells: 0.5364 and 0.5772 and 0.571
[13]
  checkerboard plate reading, Average values: 0.2706
  checkerboard plate reading, replicate wells: 0.2674 and 0.2638 and 0.2807
[14]
  checkerboard plate reading, Average values: 0.1458
  checkerboard plate reading, replicate wells: 0.1385 and 0.1476 and 0.1513
Ciprofloxacin 1.5625 nM + LEI-800 […]
  checkerboard plate reading, Average values: 0.4578
Ciprofloxacin 3.125 nM + LEI-800 0 µM
  checkerboard plate reading, Average values: 0.7916
Ciprofloxacin 3.125 nM + LEI-800 0.1 µM
  checkerboard plate reading, Average values: 0.7539
Ciprofloxacin 3.125 nM + LEI-800 0.2 µM
  checkerboard plate reading, Average values: 0.6934
Ciprofloxacin 3.125 nM + LEI-800 0.4 µM
  checkerboard plate reading, Average values: 0.6265
Ciprofloxacin 3.125 nM + LEI-800 0.8 µM
  checkerboard plate reading, Average values: 0.5829
Ciprofloxacin 3.125 nM + LEI-800 3.1 µM
  checkerboard plate reading, Average values: 0.2713
Ciprofloxacin 3.125 nM + LEI-800 6.2 µM
  checkerboard plate reading, Average values: 0.1411
Ciprofloxacin 3.125 nM + LEI-800 […]
  checkerboard plate reading, Average values: 0.464
Ciprofloxacin 6.25 nM + LEI-800 0 µM
  checkerboard plate reading, Average values: 0.8039
Ciprofloxacin 6.25 nM + LEI-800 0.1 µM
  checkerboard plate reading, Average values: 0.6899
Ciprofloxacin 6.25 nM + LEI-800 0.2 µM
  checkerboard plate reading, Average values: 0.6258
Ciprofloxacin 6.25 nM + LEI-800 0.4 µM
  checkerboard plate reading, Average values: 0.6515
Ciprofloxacin 6.25 nM + LEI-800 0.8 µM
  checkerboard plate reading, Average values: 0.573
Ciprofloxacin 6.25 nM + LEI-800 3.1 µM
  checkerboard plate reading, Average values: 0.2841
Ciprofloxacin 6.25 nM + LEI-800 6.2 µM
  checkerboard plate reading, Average values: 0.1541
Ciprofloxacin 6.25 nM + LEI-800 […]
  checkerboard plate reading, Average values: 0.4469
Ciprofloxacin 12.5 nM + LEI-800 0 µM
  checkerboard plate reading, Average values: 0.8165
Ciprofloxacin 12.5 nM + LEI-800 0.1 µM
  checkerboard plate reading, Average values: 0.6889
[15]
  checkerboard plate reading, Average values: 0.6272
  checkerboard plate reading, replicate wells: 0.6163
[16]
  checkerboard plate reading, Average values: 0.6342
  checkerboard plate reading, replicate wells: 0.6092 and 0.6266 and 0.6669
Ciprofloxacin 12.5 nM + LEI-800 0.8 µM
  checkerboard plate reading, Average values: 0.6048
Ciprofloxacin 12.5 nM + LEI-800 3.1 µM
  checkerboard plate reading, Average values: 0.2553
Ciprofloxacin 12.5 nM + LEI-800 6.2 µM
  checkerboard plate reading, Average values: 0.142
Ciprofloxacin 12.5 nM + LEI-800 […]
  checkerboard plate reading, Average values: 0.4663
[17]
  checkerboard plate reading, Average values: 0.8434
  checkerboard plate reading, replicate wells: 0.9002 and 0.8407 and 0.7891
[18]
  checkerboard plate reading, Average values: 0.7231
  checkerboard plate reading, replicate wells: 0.7425 and 0.7229 and 0.7038
[19]
  checkerboard plate reading, Average values: 0.6746
  checkerboard plate reading, replicate wells: 0.7088 and 0.6616 and 0.6533
[20]
  checkerboard plate reading, Average values: 0.6549
  checkerboard plate reading, replicate wells: 0.6481 and 0.6316 and 0.685
[21]
  checkerboard plate reading, Average values: 0.6861
  checkerboard plate reading, replicate wells: 0.7976 and 0.6273 and 0.6333
[22]
  checkerboard plate reading, Average values: 0.2871
  checkerboard plate reading, replicate wells: 0.2705 and 0.2575 and 0.3334
[23]
  checkerboard plate reading, Average values: 0.1517
  checkerboard plate reading, replicate wells: 0.149 and 0.1483 and 0.1579
Ciprofloxacin 25 nM + LEI-800 […]
  checkerboard plate reading, Average values: 0.5325
[24]
  checkerboard plate reading, Average values: 0.8946
  checkerboard plate reading, replicate wells: 0.9376 and 0.8747 and 0.8715
[25]
  checkerboard plate reading, Average values: 0.7443
  checkerboard plate reading, replicate wells: 0.7759 and 0.7241 and 0.7328
[26]
  checkerboard plate reading, Average values: 0.6725
  checkerboard plate reading, replicate wells: 0.6624 and 0.6684 and 0.6868
[27]
  checkerboard plate reading, Average values: 0.6531
  checkerboard plate reading, replicate wells: 0.6441 and 0.64 and 0.6751
[28]
  checkerboard plate reading, Average values: 0.7311
  checkerboard plate reading, replicate wells: 0.701 and 0.7232 and 0.7691
[29]
  checkerboard plate reading, Average values: 0.2841
  checkerboard plate reading, replicate wells: 0.2522 and 0.2675 and 0.3325
[30]
  checkerboard plate reading, Average values: 0.151
  checkerboard plate reading, replicate wells: 0.1483 and 0.1495 and 0.1553
Ciprofloxacin 50 nM + LEI-800 […]
  checkerboard plate reading, Average values: 0.6545
